# Laboratory results reported in patent publication US20240182470A1, “KRASG12C MUTANT PROTEIN INHIBITOR, PREARATION AND USE THEREOF” (YA THERAPEUTICS INC, priority 2021, published 2024).
# Tested on: H358 (KRAS G12C mutant) cells
# Experiment: Tumor cell proliferation inhibition assay (Cell Titer-Glo, 72 h)
# Format: cell-based
# Conditions: inhibition of tumor cell proliferation, 72 hours with compound, 10% fetal bovine serum; read-out: NCI-H538 IC50(nm)
# Protocol: The H358 (KRAS G^12C mutant) cells were digested, centrifuged and resuspended, and the cell density was measured with a Scepter automatic cell counter. The cells were diluted to a solution containing 44,000 cells per milliliter, and the density-adjusted cell solution was 90 microliters per well. into a 96-well culture plate. The 96-well plate was placed in a 37° C., 5% CO2 incubator. After the cells were cultured for 24 hours, different concentrations of the compounds to be tested were added. The cells were incubated with the compounds for 72 hours in the presence of 10% fetal bovine serum. Glo Luminescent Cell Viability Assay Kit (see manufacturer's instructions for details) was used to measure ATP content to assess cell growth inhibition. Briefly, 30 μl of Cell Titer-Glo reagent was added to each well, and the plate was shaken for 10 minutes to induce cell lysis. Fluoroskan
# Ascent FL (Thermo) assay was used to record the fluorescent signal, and the maximum signal value was obtained from cells treated with dimethyl sulfoxide for 72 hours. The minimum signal value was obtained from the medium alone (the number of cells was zero), and the % inhibition rate=(the maximum signal value compound signal value)/(the maximum signal value—the minimum signal value×100%, and the data were processed using Graphpadprism 5 software. By sigmoid Dose-response curve fitting to calculate the IC50 value. “A” means IC50≤50 nM; “B” means 50<IC50≤500 nM; “C” means 500<IC50≤2000 nM; “D” means 2000 nM<IC50
row,Compound,IC50 [nM]
1,"C=C(F)C(=O)N1CCN(c2nc(OC[C@@]34CCCN3C[C@H](F)C4)nc3c(F)c(-c4cc(O)cc5cccc(F)c45)c(Cl)cc23)[C@H](C)C1 [Compound 44, 6-Chloro-74(3-hydroxy-8-fluoronaphthyl)-8-fluoro-4-(((R)-4-(2-fluoroacryloyl)-2-methylpiperazine)-1-yl)-2-(((2R,7aS)-2-fluorotetrahydro-1H-pyrincycline-7a(5H)-yl)methoxy)quinazoline]",≤ 50
2,C=C(F)C(=O)N1CCN(c2nc(OC[C@@]34CCCN3C[C@H](F)C4)nc3nc(-c4cccc5cccc(F)c45)c(F)cc23)C[C@@H]1CC#N [Compound 29],≤ 50
3,"C=CC(=O)N1CCN(c2nc(OC[C@@]34CCCN3C[C@H](F)C4)nc3c(F)c(-c4cccc5cccc(F)c45)c(Cl)cc23)C[C@@H]1CC#N [Compound 40, 6-Chloro-7-(8-fluoronaphthyl)-8-fluoro-4-(((S)-4-acryloyl-3-carbonitrileethylpiperazine)-1-yl)-2-(((2R,7aS)-2-fluorotetrahydro-1H-pyrinyl-7a(5H)-yl)methoxy)quinazoline]",≤ 50
4,"C=CC(=O)N1CCN(c2nc(OC[C@@]34CCCN3C[C@H](F)C4)nc3nc(-c4cccc5cccc(F)c45)c(F)cc23)[C@H](C)C1 [Compound 26, 7-(8-Fluoronaphthyl)-6-fluoro-4-(((R)-4-acryloyl-2-methylpiperazine)-1-yl)-2-(((2R,7aS)-2-Fluorotetrahydro-1H-pyrincycl-7a(5H)-yl)methoxy)pyridine[2,3-d]lopyrimidine]",≤ 50
5,"7-(8-Chloronaphthalene)-4-(((R)-4-Acryloyl-2-methylpiperazine)-1-yl)-2-(((1-(pyrrolidin-1-yl)methancycloprop an-1-yl)methoxy)pyridine[2,3-d]lopyrimidine [Compound 14]",≤ 50
6,"7-(8-Fluoronaphthalene)-4-(((R)-4-Acryloyl-2-methylpiperazine)-1-yl)-2-(((1-(pyrrolidin-1-yl)methyl cyclopropan-1-yl)methoxy)pyridine[2,3-d]lopyrimidine [Compound 13]",≤ 50
7,"6-Chloro-7-(8-fluoronaphthyl)-8-fluoro-4-(((R)-4-acryloyl-2-methylpiperazine)-1-yl)-2-(((2R,7aS)-2-fluorotetrahydro-1H-pyrincycline-7a(5H)-yl)methoxy)quinazoline [Compound 37]",≤ 50
8,C=C(F)C(=O)N1CCN(c2nc(OC[C@@]34CCCN3C[C@H](F)C4)nc3c(F)c(-c4cc(O)cc5cccc(F)c45)ccc23)C[C@@H]1CC#N [Compound 52],≤ 50
9,"C=C(F)C(=O)N1CCN(c2nc(OC[C@@]34CCCN3CC(F)(F)C4)nc3nc(-c4cc(O)cc5cccc(F)c45)ccc23)C[C@@H]1CC#N [Compound 91, 7-(3-Hydroxy-8-fluoronaphthyl)-4-(((S)-4-(2-fluoroacryloyl)-3-carbonitrileethylpiperazine)-1-yl)-2-(((S)-2,2-difluorotetrahydro-1H-pyrincycl-7a(5H)-yl)methoxy)pyridine[2,3-d]lopyrimidine]",≤ 50
10,"7-(8-Methylnaphthalene)-4-(((R)-4-Acryloyl-2-methylpiperazine)-1-yl)-24(1-(N,N-dimethylamineyl)methylcyclopropan-1-yl)methoxy)pyridine[2,3-d]lopyrimidine [Compound 22]",≤ 50
11,"C=C(F)C(=O)N1CCN(c2nc(OC[C@@]34CCCN3C[C@H](F)C4)nc3c(F)c(-c4cccc5cccc(F)c45)c(Cl)cc23)[C@H](C)C1 [Compound 38, 6-Chloro-7-(8-fluoronaphthyl)-8-fluoro-4-(((R)-4-(2-fluoroacryloyl)-2-methylpiperazine)-1-yl)-2-(((2R,7aS)-2-fluorotetrahydro-1H-pyrinyl-7a(5H)-yl)methoxy)quinazoline]",≤ 50
12,C=CC(=O)N1C2CCC1CN(c1nc(OC[C@@]34CCCN3C[C@H](F)C4)nc3nc(-c4cccc5cccc(F)c45)c(F)cc13)C2 [Compound 27],≤ 50
13,C=C(F)C(=O)N1CCN(c2nc(OC[C@@]34CCCN3C[C@H](F)C4)nc3nc(-c4cccc5cccc(C)c45)ccc23)C[C@@H]1CC#N [Compound 93],≤ 50
14,"C=CC(=O)N1CCN(c2nc(OC[C@@]34CCCN3CC(F)(F)C4)nc3nc(-c4cccc5cccc(F)c45)ccc23)[C@H](C)C1 [Compound 86, 7-(8-Fluoronaphthyl)-4-(((R)-4-Acryloyl-2-methylpiperazine)-1-yl)-2-(((S)-2,2-difluorotetrakisHydro-1H-pyrincycl-7a(5H)-yl)methoxy)pyridine[2,3-d]lopyrimidine]",≤ 50
15,"7-(8-Chloronaphthalene)-4-(((R)-4-Acryloyl-3-carbonitrileethylpiperazine)-1-yl)-2-(((1-(pyrrolidin-1-yl)methylcyclopropan-1-yl)methoxy)pyridine[2,3-d]lopyrimidine [Compound 16]",≤ 50
16,"C=CC(=O)N1CCN(c2nc(OC[C@@]34CCCN3C[C@H](F)C4)nc3c(F)c(-c4cc(O)cc5cccc(F)c45)ccc23)[C@H](C)C1 [Compound 48, 7-(3-Hydroxy-8-fluoronaphthyl)-8-fluoro-4-(((R)-4-acryloyl-2-methylpiperazine)-1-yl)-2-(((2R, 7aS)-2-fluorotetrahydro-1H-pyrincycline-7a(5H)-yl)methoxy)quinazoline]",≤ 50
17,"7-(8-Methylnaphthyl)-6-fluoro-4-(((R)-4-acryloyl-2-methylpiperazine)-1-yl)-2-(((2R,7aS)-2-fluorotetrahydro-1H-pyrincyclo-7a(5H)-yl)methoxy)pyridine[2,3-d]lopyrimidine [Compound 81]",≤ 50
18,"7-(8-Fluoronaphthyl)-8-fluoro-(((S)-4-(2-fluoroacryloyl)-3-carbonitrileethylpiperazine)-1-yl)-2-((((S)-2,2-difluorotetrahydro-1H-pyrincycline-7a(5H)-yl)methoxy)quinazoline [Compound 66]",≤ 50
19,"7-(2-Fluoro-6-hydroxyphenyl)-6-fluoro-4-(((S)-4-(2-fluoroacryloyl)-3-carbonitrileethylpiperazine)-1-yl)-2-(((S)-1-(methyl-d3)pyrrolidin-2-yl)methoxy)pyridine[2,3-d]lopyrimidine [Compound 11]",> 2000
20,"6-Chloro-7-(8-methylnaphthyl)-8-fluoro-4-(((R)-4-acryloyl-2-methylpiperazine)-1-yl)-2-((((S))-2,2-Difluorotetrahydro-1H-pyrincycline-7a(5H)-yl)methoxy)quinazoline [Compound 74]",≤ 50
21,C=CC(=O)N1CCN(c2nc(OCC34CCCN3CCC4)nc3c(F)c(-c4cc(O)cc5cccc(F)c45)ccc23)C[C@@H]1CC#N [Compound 55],≤ 50
22,"C=CC(=O)N1CCN(c2nc(OC[C@@]34CCCN3C[C@H](F)C4)nc3nc(-c4cccc5cccc(C)c45)ccc23)[C@H](C)C1 [Compound 89, 7-(8-Methylnaphthyl)-4-(((R)-4-Acryloyl-2-methylpiperazine)-1-yl)-2-(((2R,7aS)-2-fluorotetrahydro-1H-pyrincycl-7a(5H)-yl)methoxy)pyridine[2,3-d]lopyrimidine]",≤ 50
23,"6-Chloro-7-(8-methylnaphthyl)-8-fluoro-4-(((R)-4-acryloyl-2-methylpiperazine)-1-yl)-2-(((2R,7aS)-2-fluorotetrahydro-1H-pyrinyl-7a(5H)-yl)methoxy)quinazoline [Compound 73]",≤ 50
24,"C=CC(=O)N1CCN(c2nc(OC[C@@]34CCCN3C[C@H](F)C4)nc3c(F)c(-c4cc(O)cc5cccc(F)c45)c(Cl)cc23)[C@H](C)C1 [Compound 46, 6-Chloro-7-(3-hydroxy-8-fluoronaphthyl)-8-fluoro-4-(((R)-4-acryloyl-2-methylpiperazine)-1-yl)-2-(((2R,7aS)-2-fluorotetrahydro-1H-pyrinyl-7a(5H)-yl)methoxy)quinazoline]",≤ 50
25,"7-(8-Methylnaphthyl)-8-fluoro-4-(((R)-4-acryloyl-2-methylpiperazine)-1-yl)-2-(((2R,7aS)tetrakishydrogen-1H-pyrinyl-7a(5H)-yl)methoxy)quinazoline [Compound 61]",≤ 50
26,"7-(8-Chloronaphthalene)-4-(((R)-4-Acryloyl-2-methylpiperazine)-1-yl)-24(1-(N,N-dimethylamino)) methylcyclopropan-1-yl)methoxy)pyridine[2,3-d]lopyrimidine [Compound 23]",≤ 50
27,C=CC(=O)N1CCN(c2nc(OC[C@@]34CCCN3CC(F)(F)C4)nc3c(F)c(-c4cccc5cccc(C)c45)ccc23)C[C@@H]1CC#N [Compound 67],≤ 50
28,"7-(8-fluoronaphthyl)-8-fluoro-4-(((S)-4-(2-fluoroacryloyl)-3-carbonitrileethylpiperazine)-1-yl)-2-(((2R,7aS)-2-fluorotetrahydro-1H-pyrinyl-7a(5H)-yl)methoxy)quinazoline [Compound 51]",≤ 50
29,"7-(3-Hydroxy-8-fluoronaphthyl)-8-fluoro-4-(((S)-4-acryloyl-3-carbonitrileethylpiperazine)-2-(((S)-2,2-difluorotetrahydro-1H-pyrincyclo-7a(5H)-yl)methoxy)quinazoline [Compound 64]",≤ 50
30,C=C(F)C(=O)N1CCN(c2nc(OC[C@@]34CCCN3C[C@H](F)C4)nc3nc(-c4cccc5cccc(F)c45)c(F)cc23)[C@H](C)C1 [Compound 30],≤ 50
